Data reported in patent publication US11203615B2, “Cancer treatment drug” (NATIONAL UNIVERSITY CORPORATION HOKKAIDO UNIVERSITY, priority 2017, dated 2021).
Residues, ends and D or L forms follow the SMILES beside them.

Tests used:
C16orf74 protein dimer [1] = target: T1, C16orf74 protein dimer (Homo sapiens, UniProt Q96GX8); experiment: Inhibition of dimer formation of C16orf74 protein in human pancreatic cancer cells and NHDFs (FIG. 3); assay type: cell-based; design: PK-1 and PK-9 (C16orf14 high expression) are compared to Panc1 and Miapaca2 (low expression); endogenous in cells; host or cells: PK-1, PK-9, Panc-1, Miapaca-2, NHDF
Procedure: The same experiment as the above (3) was conducted by using the peptide RRRRRRRRRRR-GGG-MGLKMSCLKGFQMCV (SEQ ID NO: 4) (represented as 11R-C16orf74-DB in FIG. 3(a)), the peptide RRRRRRRRRRR-GGG-MGLKMSALKGFQMAV (SEQ ID NO: 7) (represented as 11R-C16orf74 C7A-C14A in FIG. 3(b)), and the peptide RRRRRRRRRRR-GGG-MGLKMAAAKGFQAAA (SEQ ID NO: 8) (represented as 11R-C16orf74-6-8A-13-15A in FIG. 3(c)) with different concentrations to examine inhibition of the dimer formation of C16orf74 protein. For the cells, four types of human pancreatic cancer cells (PK-1, PK-9, Panc-1, Miapaca-2) and normal human dermal fibroblasts (NHDFs) were used. The results are shown in FIGS. 3(a), 3(b), and 3(c), which are 24 hour WST assays in which PK-1 and PK-9 (C16orf14 high expression) are compared to Panc1 and Miapaca2 (low expression). A p-value of p<0.05 was obtained at 30 μM.

PK-9 cells = experiment: Tumor growth in nude mice with subcutaneously injected PK-9 cells, peritumoral subcutaneous injection; assay type: in vivo; conditions: 10 mg/kg/mouse s.c. near tumor five times per week, 3 weeks
Procedure: PK-9 cells were injected into the back of each nude mouse (Balb/cA Jcl nu/nu mice, female, distributor: CLEA Japan, Inc.). Two weeks after the injection, the peptide of the present invention RRRRRRRRRRR-GGG-MGLKMSCLKGFQMCV (SEQ ID NO: 4), the peptide RRRRRRRRRRR-GGG-MGLKMAAAKGFQAAA (SEQ ID NO: 8), or PBS was injected into the subcutaneous tissue in the vicinity of tumor five times per week (10 mg/kg/mouse). The administration period was 3 weeks. At the end of the administration period, tumor was resected and the tumor weight was measured. […] The mean tumor weight of the group with administration of the peptide of the present invention (SEQ ID NO: 4) was approximately 250 mg (group 11R-DB in FIG. 8).

[2] = system: PK-9 cells expressing luciferase (PK-9-td Tomato-luc2); experiment: Tumor survival and nodulation in nude mice with peritoneally disseminated PK-9-td Tomato-luc2 cells; assay type: in vivo; conditions: 1 mg/kg/mouse five times per week, day 0 to day 35; imaging days 3-35
Procedure: PK-9 cells expressing luciferase (PK-9-td Tomato-luc2) were intraperitoneally injected into each nude mouse (Balb/cA Jcl nu/nu mice, female, distributor: CLEA Japan, Inc.). During a period from the day of the peritoneal dissemination to day 35, the peptide of the present invention RRRRRRRRRRR-GGG-MGLKMSCLKGFQMCV (SEQ ID NO: 4), the peptide RRRRRRRRRRR-GGG-MGLKMAAAKGFQAAA (SEQ ID NO: 8), or PBS was injected into the subcutaneous tissue in the vicinity of tumor five times per week (1 mg/kg/mouse). On days 3, 7, 14, 21, 28, and 35 after the peritoneal dissemination, tumor was imaged. The number of nodules was counted at the end of the peptide administration period.

[3] = system: Human pancreatic cancer cells (PK-9); experiment: Tumor growth in nude mice with PK-9 cells transplanted on the back, intraperitoneal administration; assay type: in vivo, nude mouse; conditions: i.p. five times per week, day 7 to day 35 after transplantation
Procedure: Human pancreatic cancer cells (PK-9) were transplanted to the back of each nude mouse (Balb/cA Jcl nu/nu mice, female, distributor: CLEA Japan, Inc.). The peptide of the present invention RRRRRRRRRRR-GGG-MGLKMSCLKGFQMCV (SEQ ID NO: 4), the peptide RRRRRRRRRRR-GGG-MGLKMAAAKGFQAAA (SEQ ID NO: 8), or PBS was intraperitoneally administered five times per week from day 7 to day 35 after the transplantation. During this period, body weight and tumor volume of the animals were measured, and fluorescence images were taken. On day 35 after the transplantation, tumor was resected, and the weight was measured. […] The mean tumor weight was approximately 50 mg for the group with administration of the peptide of the present invention (represented as DB in FIG. 6), and, by contrast, approximately 100 mg to 110 mg for the other two groups.

C16orf74 protein dimer [4] = target: T1, C16orf74 protein dimer; experiment: Inhibition of dimer formation of C16orf74 protein, pull-down assay in cotransfected HEK293T cells; assay type: cell-based; conditions: 40 μM peptide, 24 hours
Procedure: Pull-down assay was used for this verification. HEK293T cells were cotransfected with a vector to express a protein of Flag-tagged C16orf74 protein (pCAGGS-C16orf74-3×Flag) and a vector to express a protein of HA-tagged C16orf74 protein (pCAGGS-C16orf74-HA), and 24 hours thereafter a cell lysate was obtained and immunoprecipitation was carried out with agarose beads with an HA antibody attached thereto. The resulting immunoprecipitate was subjected to electrophoresis, and blotted with a Flag antibody. Experiment was conducted in three parallel systems. In the figure, MOCK represents a case that empty vectors of pCAGGS were provided with a Flag tag and an HA tag and HEK293T cells were cotransfected therewith. A band of the Flag-tagged C16orf74 protein was found at an intended level ([…]).
HEK293T cells were transfected with pCAGGS-C16orf74-3×Flag and pCAGGS-C16orf74-HA, and cultured in the presence and absence of 40 μM of the peptide RRRRRRRRR-GGG-MGLKMSCLKGFQMCV (SEQ ID NO: 6) for 24 hours, and thereafter a band of the dimer was detected in the same manner as descried in (1).

T1 sequence (Q96GX8 whole entry): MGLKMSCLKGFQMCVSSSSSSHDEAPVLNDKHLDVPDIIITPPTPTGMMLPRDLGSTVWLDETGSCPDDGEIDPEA

RRRRRRRRRRR-GGG-MGLKMAAAKGFQAAA (RRRRRRRRRRRGGGMGLKMAAAKGFQAAA; fusion peptide) [SEQ ID NO: 8, control peptide, cysteines 7 and 14 and their neighbouring residues converted into alanine]
inhibition of the dimer formation (C16orf74 protein dimer [1]; any of the cells (PK-1, PK-9, Panc-1, Miapaca-2, NHDFs)): no inhibition of the dimer formation was found
course of tumor volume (PK-9 cells): the tumor volume increased
survival of tumor cells (tumor imaging) [2]: The survival of tumor cells was not suppressed
change over time in tumor fluorescence intensity [3]: exhibited increase in fluorescence intensity

RRRRRRRRRRR-GGG-MGLKMSALKGFQMAV (RRRRRRRRRRRGGGMGLKMSALKGFQMAV; fusion peptide) [SEQ ID NO: 7, control peptide, cysteine residues at 7th and 14th positions converted into alanine]
inhibition of the dimer formation (C16orf74 protein dimer [1]; PK-1 and PK-9 cells): the inhibition was weaker than in using 11R-C16orf74-DB
inhibition of the dimer formation (C16orf74 protein dimer [1]; Panc1, Miapaca2 and NHDFs): Almost no inhibition of the dimer formation was found

CSCC[C@H](NC(=O)CNC(=O)CNC(=O)CNC(=O)[C@H](CCCNC(=N)N)NC(=O)[C@H](CCCNC(=N)N)NC(=O)[C@H](CCCNC(=N)N)NC(=O)[C@H](CCCNC(=N)N)NC(=O)[C@H](CCCNC(=N)N)NC(=O)[C@H](CCCNC(=N)N)NC(=O)[C@H](CCCNC(=N)N)NC(=O)[C@H](CCCNC(=N)N)NC(=O)[C@H](CCCNC(=N)N)NC(=O)[C@H](CCCNC(=N)N)NC(=O)[C@@H](N)CCCNC(=N)N)C(=O)NCC(=O)N[C@@H](CC(C)C)C(=O)N[C@@H](CCCCN)C(=O)N[C@@H](CCSC)C(=O)N[C@@H](CO)C(=O)N[C@@H](CS)C(=O)N[C@@H](CC(C)C)C(=O)N[C@@H](CCCCN)C(=O)NCC(=O)N[C@@H](Cc1ccccc1)C(=O)N[C@@H](CCC(N)=O)C(=O)N[C@@H](CCSC)C(=O)N[C@@H](CS)C(=O)N[C@H](C(=O)O)C(C)C [SEQ ID NO: 4, RRRRRRRRRRR-GGG-MGLKMSCLKGFQMCV] (H-RRRRRRRRRRRGGGMGLKMSCLKGFQMCV-OH)
inhibition at 40 µM (C16orf74 protein dimer [1]; MIA PaCa-2, Miapaca2 cells): ≥ 60%
inhibition at 40 µM (C16orf74 protein dimer [1]; PANC-1, Panc1 cells): ≥ 60%
inhibition at 30 µM (C16orf74 protein dimer [1]; PK9, PK-9 cells): ~60%
inhibition at 30 µM (C16orf74 protein dimer [1]; PK-1 cells): ~60%
body weight of the animals [3]: exhibited a higher increasing tendency than the other administration groups

RRRRRRRRR-GGG-MGLKMSCLKGFQMCV (RRRRRRRRRGGGMGLKMSCLKGFQMCV; fusion peptide) [SEQ ID NO: 6, C16orf74 N-terminal 15 amino acids bonded to 9-arginine signal via a GGG tag]
inhibition of dimer formation of C16orf74 protein (band of the dimer) (C16orf74 protein dimer [4]): the dimer formation was inhibited
